Consider 7 compounds from BindingDB's records for doi:10.1124/mol.63.6.1329 (University of Milan, 2003).

pKi: −log10 of the molar value.

For this assay, the target named is Neuronal acetylcholine receptor subunit alpha-6 (Gallus gallus, UniProt P49581).
Neuronal acetylcholine receptor subunit alpha-6, sequence (P49581 whole entry): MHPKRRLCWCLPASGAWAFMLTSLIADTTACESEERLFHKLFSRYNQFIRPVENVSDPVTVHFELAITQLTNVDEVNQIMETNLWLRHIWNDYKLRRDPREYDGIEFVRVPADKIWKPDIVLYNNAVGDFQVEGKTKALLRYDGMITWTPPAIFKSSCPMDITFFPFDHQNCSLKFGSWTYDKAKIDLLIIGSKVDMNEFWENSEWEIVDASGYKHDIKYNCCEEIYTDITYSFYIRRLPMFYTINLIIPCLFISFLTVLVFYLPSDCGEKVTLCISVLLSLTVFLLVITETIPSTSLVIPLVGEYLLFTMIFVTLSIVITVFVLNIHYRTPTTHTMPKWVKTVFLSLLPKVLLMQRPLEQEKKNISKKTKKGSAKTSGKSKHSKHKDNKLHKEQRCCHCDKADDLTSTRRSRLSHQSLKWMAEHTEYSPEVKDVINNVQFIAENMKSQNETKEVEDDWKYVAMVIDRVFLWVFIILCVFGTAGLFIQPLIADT
On to `COC1CC=C2CCN3CCC4=C(CC(=O)OC4)C23C1` (configuration not stated) [NSC_31762], for which the negative logarithm of the Ki (pKi) is 5.55. Next, `CN1CCC[C@H]1c1cccnc1` [(R,S)-nicotine]: 7.70. Turning to `C[N+](C)(C)CCCCCC[N+](C)(C)C` [Hexamethoniumdibromide], the pKi is < 5.00.

Consider `CC(C)C[C@@H]1NC(=O)[C@H](CC(N)=O)NC(=O)[C@H](CO)NC(=O)[C@H](Cc2cnc[nH]2)NC(=O)[C@H](CCC(=O)O)NC(=O)[C@H](CC(C)C)NC(=O)[C@H](Cc2cnc[nH]2)NC(=O)[C@@H]2CSSC[C@H](NC(=O)CN)C(=O)N[C@@H](CSSC[C@@H](C(N)=O)NC1=O)C(=O)N[C@@H](CO)C(=O)N[C@@H](CC(N)=O)C(=O)N1CCC[C@H]1C(=O)N[C@@H](C(C)C)C(=O)N2` [Gly-L-Cys(1)-L-Cys(2)-L-Ser-L-Asn-L-Pro-L-Val-L-Cys(1)-L-His-L-Leu-L-Glu-L-His-L-Ser-L-Asn-L-Leu-L-Cys(2)-NH2], for which the pKi is 7.18.

Compound `COc1cc2c3cc1Oc1cc(ccc1O)CC1c4c(cc(OC)c(O)c4Oc4ccc(cc4)CC3N(C)CC2)CC[N+]1(C)C` (configuration not stated) [CAS_64645] showed a pKi of 5.11. `CC[N+](CC)(CC)CCOc1ccc(C=Cc2ccccc2)cc1` [CAS_17360] gave a pKi of 5.34. To `C[N+](C)(C)CCCCCCCCCC[N+](C)(C)C` [Decamethonium Iodide] belongs < 5.00.

For orientation: pKi means the negative decadic logarithm of the Ki, by convention in mol/L.
